One experiment deals with T1, TYK2 JH2 (Homo sapiens, UniProt P29597).
T1 construct: purchased DiscoverX (KINOMEscan KdELECT service); host or cells: E. coli BL21-derived (T7 phage display) or HEK-293
The experiment in a line: TYK2 JH2 binding assay (KINOMEscan KdELECT competitive binding). Conditions: TYK2 JH2 domain, KINOMEscan KdELECT (Assay A); read-out: Biochemical TYK2_DiscoverX_JH2_BND_Kd. An outline of the steps:
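JH2-domain fragment, expressed as T7 phage tag in BL21-derived E. coli or DNA-tagged from HEK-293, competed with test compound against bead-immobilized biotinylated ligand in binding buffer (0.9% DMSO). 1 h shaking at room temperature; bound kinase eluted with 0.5 μM free ligand and quantified by qPCR. Kd from 11-point 3-fold dilutions.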

Experiment [1] deals with JAK1/TYK2 pSTAT5 (Tyr694/699) in THP-1 cell line. The experiment in a line: IFNa-stimulated JAK1/TYK2 pSTAT5 (Tyr694/699) inhibition cellular assay, AlphaLISA. The experiment is classed as cell-based. Conditions: Homo sapiens; THP-1 cells, IFNa-stimulated pSTAT5 (Tyr694/699), AlphaLISA (Assay B); read-out: Cellular_THP1_IFNa-pSTATS_TYK2. The essentials:
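THP-1, 2e4 cells/well, HBSS; cpd 1 h 37 °C (10000–0.04 nM final, 6-fold, 8 pt); IFNa 100 ng/mL added, 30 min; lyse, freeze −80 °C; pSTAT5 AlphaLISA, 615 nm; 4PL IC50, bottom fixed 0, slope −1.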
In general terms: Alpha assays give light when donor and acceptor beads are brought close together.

Another experiment deals with Psoriasis patients. Particulars: humans; TYK2 inhibitor; background statement citing Armstrong et al, Ann of Rheu Dis, 2020; cited from earlier work.

We go through 4 molecules from patent publication US20240025906A1 (NEURON23, INC., priority 2022, published 2024).

Where only a bound is given, the exact number is not on record here.

T1 sequence (P29597 589-875 limits assumed): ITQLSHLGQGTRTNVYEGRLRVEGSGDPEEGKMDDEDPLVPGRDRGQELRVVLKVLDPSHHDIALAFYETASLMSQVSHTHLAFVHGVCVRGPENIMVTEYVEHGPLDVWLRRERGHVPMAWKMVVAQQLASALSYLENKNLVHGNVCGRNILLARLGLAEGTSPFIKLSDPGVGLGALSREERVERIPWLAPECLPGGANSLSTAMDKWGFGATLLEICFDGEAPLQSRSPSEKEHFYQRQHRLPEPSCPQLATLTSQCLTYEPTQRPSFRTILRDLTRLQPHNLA

For the molecule `CNc1ncc(-c2cc3ccncc3o2)c2cc(Nc3cccc(OCCCCO)n3)ncc12` [Example 1103, 4-((6-((5-(furo[2,3-c]pyridin-2-yl)-8-(methylamino)-2,7-naphthyridin-3-yl)amino)pyridin-2-yl)oxy)butan-1-ol], the Kd on TYK2 JH2 is not above 100 nM. In addition, the IC50 in experiment [1] is not above 500 nM.
Regarding `CNc1ncc(C#Cc2ccc(-n3ccccc3=O)cc2)c2cc(NC(=O)C3(F)CC3)ncc12` [Example 1138, 1-fluoro-N-(8-(methylamino)-5-((4-(2-oxopyridin-1(2H)-yl)Phenyl)ethynyl)-2,7-naphthyridin-3-yl)cyclopropanecarboxamide], on TYK2 JH2, the Kd is not above 100 nM. Besides, the IC50 in experiment [1] is not above 500 nM.
Consider `CNc1ncc(C#Cc2ccc(-n3c(=O)ccn3C)cc2)c2cc(NC(=O)[C@H]3C[C@H]3C)ncc12` [Example 1142, (1S,2R)-2-methyl-N-[8-(methylamino)-5-[2-[4-(2-methyl-5-oxo-pyrazol-1-yl)phenyl]ethynyl]-2,7-naphthyridin-3-yl]cyclopropanecarboxamide], for which the Kd at TYK2 JH2 was not above 100 nM. In addition, the IC50 in experiment [1] was not above 500 nM.
As for deucravacitinib, the “efficacy in Psoriasis patients” value in the experiment on Psoriasis patients is “efficacy”.
